Molecular target: T1, USP28 (His-tagged USP28-FL-mammalian) (Homo sapiens, UniProt Q96RU2)
T1 construct: Expression of USP28 (1-1077)-TEV-6*His (pTT5 vector); made in house; host or cells: Expi293f cells (pTT5 vector)
T1 sequence (Q96RU2 1-1077): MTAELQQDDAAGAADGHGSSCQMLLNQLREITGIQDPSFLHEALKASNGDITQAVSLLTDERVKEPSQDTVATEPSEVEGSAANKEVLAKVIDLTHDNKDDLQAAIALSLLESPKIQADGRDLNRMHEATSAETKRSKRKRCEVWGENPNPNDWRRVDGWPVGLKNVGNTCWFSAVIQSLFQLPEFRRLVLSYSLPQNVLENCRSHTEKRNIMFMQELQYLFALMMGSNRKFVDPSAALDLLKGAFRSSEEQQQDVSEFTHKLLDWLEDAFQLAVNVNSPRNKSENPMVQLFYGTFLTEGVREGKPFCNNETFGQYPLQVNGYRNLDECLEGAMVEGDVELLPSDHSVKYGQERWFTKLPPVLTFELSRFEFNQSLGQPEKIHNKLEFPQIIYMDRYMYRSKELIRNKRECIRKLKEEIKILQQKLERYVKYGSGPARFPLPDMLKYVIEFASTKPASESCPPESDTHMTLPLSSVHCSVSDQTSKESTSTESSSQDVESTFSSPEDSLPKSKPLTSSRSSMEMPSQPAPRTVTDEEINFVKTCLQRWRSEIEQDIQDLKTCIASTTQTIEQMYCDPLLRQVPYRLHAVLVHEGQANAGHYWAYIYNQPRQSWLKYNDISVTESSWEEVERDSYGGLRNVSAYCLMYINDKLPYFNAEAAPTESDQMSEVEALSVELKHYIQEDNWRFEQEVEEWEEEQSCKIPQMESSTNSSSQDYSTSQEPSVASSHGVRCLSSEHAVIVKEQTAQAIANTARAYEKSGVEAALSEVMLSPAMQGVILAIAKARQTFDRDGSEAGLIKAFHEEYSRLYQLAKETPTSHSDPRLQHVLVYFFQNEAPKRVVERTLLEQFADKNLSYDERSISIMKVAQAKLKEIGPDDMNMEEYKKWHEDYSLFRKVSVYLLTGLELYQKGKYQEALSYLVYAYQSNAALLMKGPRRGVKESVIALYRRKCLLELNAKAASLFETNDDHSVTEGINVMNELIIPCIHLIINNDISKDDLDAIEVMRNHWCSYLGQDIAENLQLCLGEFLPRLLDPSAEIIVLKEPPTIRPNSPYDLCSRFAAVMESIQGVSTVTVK
Assay: Ubiquitin-Rhodamine 110 Assay for USP28 Activity, Example A-1(a)
Type: biochemical
Details: Ubiquitin-Rhodamine 110 assay, format Example A-1(a); read-out: USP28 A-1(a) IC50 range
Outline: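 Full-length His-tagged human USP28 (1-1077, Expi293f-expressed), […], with 25 nM Ub-Rh110 (<<Km) in pH 8.0 Tris buffer with BME, BGG, Triton X-100. 10-point dilutions (25 μM-1.3 nM), 45 min at room temperature, citric acid stop, fluorescence 485/535 nm; IC50 by 4-parameter fit.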

| SMILES | IC50 |
| --- | --- |
| Cc1ccc2c(N)c(C(=O)N[C@H]3COc4cc(N5CCNCC5)ncc4C3)sc2n1 [Example 16, (R)-3-Amino-6-methyl-N-(7-(piperazin-1-yl)-3,4-dihydro-2H-pyrano[3,2-c]pyridin-3-yl)thieno[2,3-b]pyridine-2-carboxamide] | 1 to 50 nM |
| Cc1ccc2c(N)c(C(=O)N[C@H]3COc4cc(N5CC6CCC(C5)N6)nc(F)c4C3)sc2n1 [Example 17, N-((3R)-7-(3,8-Diazabicyclo[3.2.1]octan-3-yl)-5-fluoro-3,4-dihydro-2H-pyrano[3,2-c]pyridin-3-yl)-3-amino-6-methylthieno[2,3-b]pyridine-2-carboxamide] | 1 to 50 nM |
| Cc1ccc2c(N)c(C(=O)N[C@H]3COc4c(cnc(N5CC6CCC(C5)N6)c4F)C3)sc2n1 [Example 18, N-((3R)-7-(3,8-Diazabicyclo[3.2.1]octan-3-yl)-8-fluoro-3,4-dihydro-2H-pyrano[3,2-c]pyridin-3-yl)-3-amino-6-methylthieno[2,3-b]pyridine-2-carboxamide] | 1 to 50 nM |
| Cc1ccc2c(N)c(C(=O)N[C@H]3COc4nc(N5CCNCC5)ccc4C3)sc2n1 [Example 19, (R)-3-Amino-6-methyl-N-(7-(piperazin-1-yl)-3,4-dihydro-2H-pyrano[2,3-b]pyridin-3-yl)thieno[2,3-b]pyridine-2-carboxamide] | 50 to 200 nM |
| Cc1ccc2c(N)c(C(=O)N[C@H]3COc4nc(N5CCNCC5)c(F)cc4C3)sc2n1 [Example 20, (R)-3-Amino-N-(6-fluoro-7-(piperazin-1-yl)-3,4-dihydro-2H-pyrano[2,3-b]pyridin-3-yl)-6-methylthieno[2,3-b]pyridine-2-carboxamide] | 50 to 200 nM |
| CO[C@H]1CN(c2ccc3c(n2)CC[C@H](NC(=O)c2sc4nc(C)cc(C)c4c2N)C3)C[C@@H]1N [Example 23-3, 3-amino-N-[(6S)-2-[(3S,4S)-3-amino-4-methoxypyrrolidin-1-yl]-5,6,7,8-tetrahydroquinolin-6-yl]-4,6-dimethylthieno[2,3-b]pyridine-2-carboxamide] | 50 to 200 nM |
| CO[C@H]1CN(c2ccc3c(n2)CC[C@H](NC(=O)c2sc4nc(C)ccc4c2N)C3)C[C@@H]1N [Example 23-4, 3-amino-N-[(6S)-2-[(3S,4S)-3-amino-4-methoxypyrrolidin-1-yl]-5,6,7,8-tetrahydroquinolin-6-yl]-6-methylthieno[2,3-b]pyridine-2-carboxamide] | 50 to 200 nM |
| CO[C@H]1CN(c2ccc3c(n2)CC[C@@H](NC(=O)c2sc4nc(C)ccc4c2N)C3)C[C@@H]1N [Example 23-5, 3-amino-N-[(6R)-2-[(3S,4S)-3-amino-4-methoxypyrrolidin-1-yl]-5,6,7,8-tetrahydroquinolin-6-yl]-6-methylthieno[2,3-b]pyridine-2-carboxamide] | 200 to 2000 nM |

Reference: patent US11524966B1 (Valo Early Discovery, Inc., priority 2017, dated 2022)
